# Reference: US7999119B2, “Compounds having CRTH2 antagonist activity” (Oxagen Limited, priority 2006, dated 2011)
# Values joined by “and” are separate entries in the source; they are usually repeats but may differ in a detail not shown here. Identical values can stand only once. Like-named read-outs stand apart in the source and are kept apart here.
# Key:
# [1] = system: PGD2 induced eosinophil shape change; experiment: Human whole blood eosinophil shape change assay; format: cell-based; conditions: Homo sapiens, Eosinophil
# In short: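 Compound added to human whole blood and incubated 15 min at 37° C., 5% CO2, before cell fixation and red-cell lysis. Leukocytes analysed by FACS, eosinophils gated by autofluorescence, 2000 events per sample, triplicate; read-out is inhibition of PGD2-induced eosinophil shape change.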
# [2] = Pharmacokinetics following oral administration in the rat; format: in vivo; conditions: 3 mg/kg; for half-life: read-out: T½, Mean (converted); for Fold over IC50 at 24 h: mean blood concentration at 24 h (rat, 3 mg/kg p.o.) divided by whole blood IC50 in ng/ml
# Procedure: Investigation of Pharmacokinetics of Compounds of General Formula (I) Following Oral Administration in the Rat
# Rats were weighed on the day of dosing.
# The test material was prepared as a 0.3 mg/mL suspension in 1% carboxy-methyl-cellulose (CMC).
# Three groups of 3 rats were dosed as follows:
# Doses were administered as a single oral dose using a gavage tube at a constant dose volume of 10 mL/kg.
# At each sampling time point blood samples (approximately 0.3 mL) was taken from a catheter inserted into a lateral tail vein prior to the start of the experiment. The final blood sample (approximately 2 mL) from each animal was taken by cardiac puncture under isoflurane anaesthesia following which the animal was killed by exsanguination. Blood samples were taken into individual heparinised containers. Blood samples were collected at the following times post-dose:
# Following collection, the blood samples were centrifuged (approximately 10,000×g, 2 min at 4° C.) and the plasma stored as one aliquot at approximately −20° C. pending analysis of drug concentrations by LC-MS/MS.
# The plasma samples were analysed for test material concentrations at BioDynamics using an LC-MS/MS method developed at BioDynamics.
# [3] = system: DK-PGD2-induced blood eosinophilia; experiment: Inhibition of DK-PGD2-induced blood eosinophilia in rats; format: in vivo, rat; conditions: female rats, oral dosing 30 min before 10 μg DK-PGD2 intracardiac; ED50 from dose-response curve; the values are: ED50
# Procedure: Evaluation of Compounds of General Formula (I) as Inhibitors of 13,14-dihydro-15-keto prostaglandin D2 (DK-PGD2)-Induced Blood Eosinophilia in Rats
# The test compound was dissolved in DMSO and diluted with water to give a final dosing volume of 2 ml/kg.
# Female rats (175-250 g; UH colony) were dosed orally with test compound (or vehicle).
# 30 min after dosing all animals were anaesthetised with isoflurane.
# Following induction of anaesthesia, animals receive an intracardiac injection of 10 μg DK-PGD2 in 0.3 ml heparinised (10 U/ml) saline. Control animals received an injection of 0.3 ml heparinised saline.
# 60 min after the intracardiac injection, animals were injected with an overdose of pentobarbitone sodium and a blood sample was taken (into heparin) by cardiac puncture while the rat was anaesthetised but not dead.
# An aliquot of blood (100 μl) was added to Turk's solution and the total leukocyte count determined with a haemocytometer.
# A further aliquot of blood (500 μl) was mixed with an equal volume of 4% Dextran (mw 500,000) and the erythrocytes allowed to settle. A cytospin preparation was made from the resulting leukocyte rich fraction.
# Cytospin preparations were fixed with methanol (5 min) and stained with May-Grunwald (5 min) and Giemsa (15 min) stains. Finally cytospins were washed in phosphate buffer (pH6.8) and air dried.
# Differential leukocyte counts were obtained from the cytospin preparations.
# Blood eosinophil numbers were determined from the total leukocyte count and the percentage eosinophils (differential count).
# Because it was impractical to generate sufficient data in any given experiment, data were obtained over a number of replicate experiments. Data from these replicate experiments were pooled, to provide at least 5 animals in each group and a dose-response curve fitted following a significance test (Mann Whitney) to determine whether or not DK-PGD2 caused a significant increase in blood eosinophils (GraphPad, Prism). A difference between groups was taken to be significant when P<0.05. ED50 values were calculated from the dose-response curve.
# [4] = 10 nm PGD2-induced eosinophil shape change, human whole blood, read-out: Whole Blood IC50
# [5] = Table 12 summary of whole blood eosinophil shape change IC50, read-out: IC50 (μmol)
# [6] = whole blood eosinophil shape change IC50 converted to ng/mL, read-out: IC50
# [7] = male, rat, plasma, po, rat, 3 mg/kg oral, 0.25 h, mean, read-out: Concentration in Blood, Mean
# [8] = male, rat, plasma, po, rat, 3 mg/kg oral, 0.5 h, individual male animals, read-out: Concentration in Blood
# [9] = male, rat, plasma, po, rat, 3 mg/kg oral, 0.5 h, mean, read-out: Concentration in Blood, Mean
# [10] = male, rat, plasma, po, rat, 3 mg/kg oral, 1 h, individual male animals, read-out: Concentration in Blood
# [11] = male, rat, plasma, po, rat, 3 mg/kg oral, 1 h, mean, read-out: Concentration in Blood, Mean
# [12] = male, rat, plasma, po, rat, 3 mg/kg oral, 2 h, individual male animals, read-out: Concentration in Blood
# [13] = male, rat, plasma, po, rat, 3 mg/kg oral, 2 h, mean, read-out: Concentration in Blood, Mean
# [14] = male, rat, plasma, po, rat, 3 mg/kg oral, 4 h, individual male animals, read-out: Concentration in Blood
# [15] = male, rat, plasma, po, rat, 3 mg/kg oral, 4 h, mean, read-out: Concentration in Blood, Mean
# [16] = male, rat, plasma, po, rat, 3 mg/kg oral, 6 h, mean, read-out: Concentration in Blood, Mean
# [17] = male, rat, plasma, po, rat, 3 mg/kg oral, 8 h, mean, read-out: Concentration in Blood, Mean
# [18] = male, rat, plasma, po, rat, 3 mg/kg p.o, individual male animals, read-out: AUCinf
# [19] = male, rat, plasma, po, rat, 3 mg/kg p.o, individual male animals, read-out: Cmax
# [20] = male, rat, plasma, po, rat, 3 mg/kg p.o, individual male animals, read-out: Tmax
# [21] = male, rat, plasma, po, rat, 3 mg/kg p.o, mean, summary without unit (Table 12), read-out: AUCinf (mean)
# [22] = male, rat, plasma, po, rat, 3 mg/kg p.o, mean, summary without unit (Table 12), read-out: Cmax (mean)
# [23] = male, rat, plasma, po, rat, 3 mg/kg p.o, mean, read-out: AUCinf, Mean
# [24] = male, rat, plasma, po, rat, 3 mg/kg p.o, mean, read-out: Cmax, Mean
# [25] = male, rat, plasma, po, rat, 3 mg/kg p.o, mean, read-out: Tmax, Mean
# [26] = male, rat, plasma, po, rat, 3 mg/kg p.o, mean
# [27] = rat, 3 mg/kg oral, 0.25 h, individual male animals
# [28] = rat, 3 mg/kg oral, 0.5 h, individual male animals
# [29] = rat, 3 mg/kg oral, 1 h, individual male animals
# [30] = rat, 3 mg/kg oral, 2 h, individual male animals
# [31] = rat, 3 mg/kg oral, 4 h, individual male animals
# [32] = rat, 3 mg/kg oral, 6 h, individual male animals
# [33] = rat, 3 mg/kg oral, 8 h, individual male animals
# [34] = rat, 3 mg/kg oral, 24 h, individual male animals
# [35] = rat, 3 mg/kg p.o, individual male animals
structure (smiles),measurement,setting,value
"Cc1c(Cc2ccc3ccccc3n2)c2cc(F)ccc2n1CC(=O)O [Compound A, (5-Fluoro-2-methyl-3-quinolin-2-ylmethyl-indol-1-yl)-acetic acid, reference compound]",IC50,[1]; [4],103 nM
same,IC50,[1]; [5],103 nM
same,IC50,[1]; [6],0.0358 µg/mL
same,concentration at 0.25 h,[2]; [7],120 ng/mL
same,concentration at 0.5 h,[2]; [8],426 ng/mL
same,concentration at 0.5 h,[2]; [9],357 ng/mL
same,concentration at 1 h,[2]; [10],875 ng/mL
same,concentration at 1 h,[2]; [11],779 ng/mL
same,concentration at 2 h,[2]; [12],1420 ng/mL
same,concentration at 2 h,[2]; [13],1250 ng/mL
same,concentration at 4 h,[2]; [14],923 ng/mL
same,concentration at 4 h,[2]; [15],857 ng/mL
same,concentration at 6 h,"[2]; male, rat, plasma, po, rat, 3 mg/kg oral, 6 h, individual male animals, read-out: Concentration in Blood",404 ng/mL
same,concentration at 6 h,[2]; [16],451 ng/mL
same,concentration at 8 h,[2]; [17],354 ng/mL
same,concentration at 24 h,"[2]; male, rat, plasma, po, rat, 3 mg/kg oral, 24 h, mean, read-out: Concentration in Blood, Mean",43.7 ng/mL
same,AUC(0-inf),[2]; [18],8570 ng·h/mL
same,Cmax,[2]; [19],1420 ng/mL
same,Tmax,[2]; [20],2 h
same,AUC(0-inf),[2]; [21],8160 ng·h/mL
same,Cmax,[2]; [22],1250 ng/mL
same,AUC(0-inf),[2]; [23],8160 ng·h/mL
same,Cmax,[2]; [24],1250 ng/mL
same,Tmax,[2]; [25],2 h
same,half-life,[2]; [26],4.8 h
same,Fold over IC50 at 24 h,[2],1.2
same,Fold over IC50 at 24 h,[2]; listed as Compound (A),ca. 1.2
same,Concentration in Blood,[2]; [27],139.1 ng/mL and 153.9 ng/mL and 68.3 ng/mL
same,Concentration in Blood,[2]; [28],388.4 ng/mL and 256.3 ng/mL
same,Concentration in Blood,[2]; [29],923.2 ng/mL and 538.8 ng/mL
same,Concentration in Blood,[2]; [30],1309.0 ng/mL and 1013.6 ng/mL
same,Concentration in Blood,[2]; [31],820.5 ng/mL and 827.0 ng/mL
same,Concentration in Blood,[2]; [32],514.8 ng/mL and 432.6 ng/mL
same,Concentration in Blood,[2]; [33],305.6 ng/mL and 521.9 ng/mL and 235.5 ng/mL
same,Concentration in Blood,[2]; [34],51.8 ng/mL and 79.2 ng/mL and 0.0 ng/mL
same,AUCinf,[2]; [35],10429.2 ng·h/mL and 5473.9 ng·h/mL
same,Cmax,[2]; [35],1309.0 ng/mL and 1013.6 ng/mL
same,T½,[2]; [35],6.1 hours (2×) and 2.2 hours
same,Cmax (mean),"[2]; rat, 3 mg/kg p.o, mean, summary without unit (Table 12), in ng/mL",1246
same,AUCinf (mean),"[2]; rat, 3 mg/kg p.o, mean, summary without unit (Table 12), in ng·h/mL",8158
same,Potency in inhibition of DK-PGD2-induced blood eosinophilia,[3],37 mg/kg
"Cc1c(Cc2ccccc2S(=O)(=O)c2ccc(Cl)cc2)c2cc(F)ccc2n1CC(=O)O [Compound 2, 2-(3-(2-(4-chlorophenylsulfonyl)benzyl)-5-fluoro-2-methyl-1H-indol-1-yl)acetic acid]",IC50,[1]; [4],2 nM
same,IC50,[1]; [5],2 nM
same,IC50,[1]; [6],0.0009 µg/mL
same,IC50,[1]; read-out: IC50 in the whole blood eosinophil shape change assay,2 nM
same,concentration at 0.25 h,"[2]; male, rat, plasma, po, rat, 3 mg/kg oral, 0.25 h, individual male animals, read-out: Concentration in Blood",1570 ng/mL
same,concentration at 0.25 h,[2]; [7],1490 ng/mL
same,concentration at 0.5 h,[2]; [8],2610 ng/mL
same,concentration at 0.5 h,[2]; [9],2220 ng/mL
same,concentration at 1 h,[2]; [10],2960 ng/mL
same,concentration at 1 h,[2]; [11],2900 ng/mL
same,concentration at 2 h,[2]; [12],2240 ng/mL
same,concentration at 2 h,[2]; [13],2500 ng/mL
same,concentration at 4 h,[2]; [14],1130 ng/mL
same,concentration at 4 h,[2]; [15],1370 ng/mL
same,concentration at 6 h,[2]; [16],640 ng/mL
same,concentration at 8 h,[2]; [17],450 ng/mL
same,concentration at 12 h,"[2]; male, rat, plasma, po, rat, 3 mg/kg oral, 12 h, mean, read-out: Concentration in Blood, Mean",100 ng/mL
same,AUC(0-inf),[2]; [18],13200 ng·h/mL
same,Cmax,[2]; [19],2960 ng/mL
same,Tmax,[2]; [20],1 h
same,AUC(0-inf),[2]; [21],11700 ng·h/mL
same,Cmax,[2]; [22],2950 ng/mL
same,AUC(0-inf),[2]; [23],11700 ng·h/mL
same,Cmax,[2]; [24],2950 ng/mL
same,Tmax,[2]; [25],1.3 h
same,half-life,[2]; [26],3.7 h
same,Concentration in Blood,[2]; [27],1297.7 ng/mL and 1608.1 ng/mL
same,Concentration in Blood,[2]; [28],1770.2 ng/mL and 2276.6 ng/mL
same,Concentration in Blood,[2]; [29],2367.1 ng/mL and 3366.1 ng/mL
same,Concentration in Blood,[2]; [30],2536.9 ng/mL and 2717.6 ng/mL
same,Concentration in Blood,[2]; [31],1319.1 ng/mL and 1666.5 ng/mL
same,Concentration in Blood,[2]; [32],519.6 ng/mL and 368.3 ng/mL and 1032.6 ng/mL
same,Concentration in Blood,[2]; [33],423.7 ng/mL and 186.7 ng/mL and 740.4 ng/mL
same,Concentration in Blood,"[2]; rat, 3 mg/kg oral, 12 h, individual male animals",144.7 ng/mL and 28.2 ng/mL and 128.1 ng/mL
same,Concentration in Blood,[2]; [34],60.5 ng/mL and 0.0 ng/mL (2×)
same,AUCinf,[2]; [35],10179 ng·h/mL and 15677 ng·h/mL
same,Cmax,[2]; [35],2537.0 ng/mL and 3366.0 ng/mL
same,Tmax,[2]; [35],2.0 h
same,T½,[2]; [35],6 hours and 2 hours (2×)
same,Potency in inhibition of DK-PGD2-induced blood eosinophilia,[3],0.01 mg/kg
